Source: ChEMBL document CHEMBL1147125, “Microbial transformation of (-)-guaiol and antibacterial activity of its transformed products” (2007)

Assays:
Bacillus subtilis = assay: Antibacterial activity against Bacillus subtils at 100 ug/100 uL after 24 hrs; type: functional
Shigella flexneri = assay: Antibacterial activity against Shigella flexneri at 100 ug/100 uL after 24 hrs; type: functional
Pseudomonas aeruginosa = assay: Antibacterial activity against Pseudomonas aeruginosa at 100 ug/100 uL after 24 hrs; type: functional
Salmonella typhi = assay: Antibacterial activity against Salmonella typhi at 100 ug/100 uL after 24 hrs; type: functional, Salmonella enterica subsp. enterica serovar Typhi
Staphylococcus aureus = assay: Antibacterial activity against Staphylococcus aureus at 100 ug/100 uL after 24 hrs; type: functional
Escherichia coli = assay: Antibacterial activity against Escherichia coli at 100 ug/100 uL after 24 hrs; type: functional

`C[C@H]1CC[C@@H](C(C)(C)O)C(=O)C2=C1CC[C@@H]2C` was tested, and the “inhibition zone (IZ)” value (Bacillus subtilis) was 11 mm, the “inhibition zone (IZ)” value (Shigella flexneri) was 10 mm and the “inhibition zone (IZ)” value (Pseudomonas aeruginosa) was 13 mm.

In the case of `C[C@@H]1C2=CC[C@H](C)[C@@H]2C[C@H](C(C)(C)O)C[C@@H]1O`, the “inhibition zone (IZ)” value (Salmonella typhi) is reported as 16 mm and the “inhibition zone (IZ)” value (Pseudomonas aeruginosa) is reported as 20 mm.

`C[C@@H]1C2=C(C[C@H](C(C)(C)O)C[C@H]1O)[C@@H](C)[C@@H](O)C2` was tested, and the “inhibition zone (IZ)” value (Staphylococcus aureus) was 20 mm, the “inhibition zone (IZ)” value (Salmonella typhi) was 15 mm and the “inhibition zone (IZ)” value (Pseudomonas aeruginosa) was 17 mm.

For `C[C@H]1CC[C@@H](C(C)(C)O)C[C@@H]2C1=CC(=O)[C@@H]2C`, the “inhibition zone (IZ)” value (Bacillus subtilis) was 11 mm and the “inhibition zone (IZ)” value (Pseudomonas aeruginosa) was 13 mm.

With `C[C@@H]1[C@@H]2C[C@H](C(C)(C)O)CC[C@H](C)C2=C[C@@H]1O` the “inhibition zone (IZ)” value (Salmonella typhi) was 15 mm and the “inhibition zone (IZ)” value (Pseudomonas aeruginosa) was 20 mm.

`C[C@H]1CC[C@@H](C(C)(C)O)CC2=C1CC[C@@H]2C` [GUAIOL] was tested, and the “inhibition zone (IZ)” value (Escherichia coli) was 16 mm, the “inhibition zone (IZ)” value (Bacillus subtilis) was 15 mm and the “inhibition zone (IZ)” value (Salmonella typhi) was 24 mm. The “inhibition zone (IZ)” value (Shigella flexneri) was 17 mm and the “inhibition zone (IZ)” value (Pseudomonas aeruginosa) was 17 mm.

For `C[C@@H](O)[C@H]1C(=O)N2C(C(=O)O)=C(SCCNC=N)C[C@H]12` [IMIPENEM ANHYDROUS], the “inhibition zone (IZ)” value (Escherichia coli) was 30 mm, the “inhibition zone (IZ)” value (Staphylococcus aureus) was 33 mm and the “inhibition zone (IZ)” value (Bacillus subtilis) was 33 mm. The “inhibition zone (IZ)” value (Salmonella typhi) was 25 mm, the “inhibition zone (IZ)” value (Shigella flexneri) was 27 mm and the “inhibition zone (IZ)” value (Pseudomonas aeruginosa) was 24 mm.
